Patent US9440941B2, “Substituted chroman-6-yloxy-cycloalkanes and their use as pharmaceuticals” (SANOFI, priority 2013, dated 2016)
Counter-ions that a name gives are not always drawn. Like-named read-outs stand apart in the source and are kept apart here.

Target: T1, human NCX1 (Homo sapiens, UniProt P32418)
T1 construct: expressed in transfected cells
Assay: Inhibition of Ca2+ influx into cells (NCX1 reverse mode), FLIPR Fluo-4 assay
Type: cell-based
Conditions: for IC50: inhibition of NCX1 in reverse mode (Ca2+ influx into cells), read-out: NCX1rv IC50; for inhibition at 10 µM: NCX1 reverse mode, IC50 value not determined
How it was run: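 CHO cells stably expressing human NCX1, loaded with Fluo-4 AM, preincubated with compound 45 min at 16 °C in pH 7.4 buffer (3.5 mM CaCl2). Reverse mode triggered by 20 µM gramicidin (final); Fluo-4 fluorescence read at 520 nm every 2 s. IC50 from percentage inhibition of max-minus-min fluorescence.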

[1] = read-out: NCX1rv inhibition in % at 10 μM
[2] = read-out: Inhibition in % at 10 μM (NCX1rv)

IC50 | Structure (SMILES) | also measured
2400 nM | COCC(C)NC1CCC(Oc2ccc3c(c2)CCC(c2ccccc2F)O3)CC1 (stereo not drawn) [compound 219] | –
2400 nM | Fc1ccccc1C1CCc2cc(OC3CCC(NCCC4CCOCC4)CC3)ccc2O1 (stereo not drawn) [compound 220] | –
2300 nM | COC[C@H](C)NC1CCC(Oc2ccc3c(c2)CCC(c2ccccc2F)O3)CC1 (stereo partly drawn) [compound 221] | –
3100 nM | CCC(COC)NC1CCC(Oc2ccc3c(c2)CCC(c2ccccc2F)O3)CC1 (stereo not drawn) [compound 222] | –
3100 nM | CCOCCCNC1CCC(Oc2ccc3c(c2)CCC(c2ccccc2F)O3)CC1 (stereo not drawn) [compound 223] | –
3500 nM | Fc1ccccc1C1CCc2cc(OC3CCC(NCCN4CCOCC4)CC3)ccc2O1 (stereo not drawn) [compound 224] | –
3900 nM | CC(C)OCCCNC1CCC(Oc2ccc3c(c2)CCC(c2ccccc2F)O3)CC1 (stereo not drawn) [compound 225] | –
2400 nM | CSCCNC1CCC(Oc2ccc3c(c2)CCC(c2ccccc2F)O3)CC1 (stereo not drawn) [compound 226] | –
4300 nM | Fc1ccccc1C1CCc2cc(OC3CCC(NCCN4CCSCC4)CC3)ccc2O1 (stereo not drawn) [compound 227] | –
2200 nM | Fc1ccccc1C1CCc2cc(OC3CCC(NCCCC4CCOC4)CC3)ccc2O1 (stereo not drawn) [compound 228] | –
6000 nM | Fc1ccccc1C1CCc2cc(OC3CCC(NCCCOC4CCCC4)CC3)ccc2O1 (stereo not drawn) [compound 229] | –
2900 nM | CCCCNC1CCC(Oc2ccc3c(c2)CCC(c2ccccc2F)O3)CC1 (stereo not drawn) [compound 230] | –
4100 nM | Fc1ccccc1C1CCc2cc(OC3CCC(NC4CCOCC4)CC3)ccc2O1 (stereo not drawn) [compound 231] | –
5900 nM | CC(C)SCCNC1CCC(Oc2ccc3c(c2)CCC(c2ccccc2F)O3)CC1 (stereo not drawn) [compound 232] | –
100 nM | O=C(N[C@H]1CC[C@H](Oc2ccc3c(c2)CCC(c2ccccc2F)O3)CC1)C1CCC1 (stereo partly drawn) [compound 244] | –
200 nM | CO[C@H](C)C(=O)N[C@H]1CC[C@H](Oc2ccc3c(c2)CCC(c2ccccc2F)O3)CC1 (stereo partly drawn) [compound 255] | –

IC50 | Structure (SMILES) | also measured
200 nM | Cc1c(F)cccc1C1CCc2cc(OC3CCC(C(=O)NCCO)CC3)ccc2O1 (stereo not drawn) [compound 262] | –
100 nM | Cc1c(F)cccc1C1CCc2cc(OC3CCC(C(=O)NCc4ccno4)CC3)ccc2O1 (stereo not drawn) [compound 263] | –
200 nM | Cc1ccccc1C1CCc2cc(OC3CCC(C(=O)NC(CO)CO)CC3)ccc2O1 (stereo not drawn) [compound 264] | –
400 nM | Cc1c(F)cccc1C1CCc2cc(OC3CCC(C(=O)NCC(N)=O)CC3)ccc2O1 (stereo not drawn) [compound 272] | –
600 nM | Cc1c(F)cccc1C1CCc2cc(OC3CCC(C(=O)NCC(=O)N(C)C)CC3)ccc2O1 (stereo not drawn) [compound 273] | –
600 nM | Cc1c(F)cccc1C1CCc2cc(OC3CCC(C(=O)NCCS(=O)(=O)N(C)C)CC3)ccc2O1 (stereo not drawn) [compound 274] | –
400 nM | CNS(=O)(=O)CCNC(=O)C1CCC(Oc2ccc3c(c2)CCC(c2cccc(F)c2C)O3)CC1 (stereo not drawn) [compound 275] | –
600 nM | Cc1c(F)cccc1C1CCc2cc(OC3CCC(C(=O)NCC(C)O)CC3)ccc2O1 (stereo not drawn) [compound 276] | –
300 nM | Cc1c(F)cccc1C1CCc2cc(OC3CCC(C(=O)NCCNS(C)(=O)=O)CC3)ccc2O1 (stereo not drawn) [compound 277] | –
500 nM | CNC(=O)CNC(=O)C1CCC(Oc2ccc3c(c2)CCC(c2cccc(F)c2C)O3)CC1 (stereo not drawn) [compound 281] | –
400 nM | CSC(C)CCNC(=O)C1CCC(Oc2ccc3c(c2)CCC(c2cccc(F)c2C)O3)CC1 (stereo not drawn) [compound 282] | –
600 nM | CCn1nccc1CNC(=O)C1CCC(Oc2ccc3c(c2)CCC(c2cccc(F)c2C)O3)CC1 (stereo not drawn) [compound 283] | –
800 nM | Cc1c(F)cccc1C1CCc2cc(OC3CCC(C(=O)NC[C@@H]4CCCC[C@H]4O)CC3)ccc2O1 (stereo partly drawn) [compound 284] | –
1900 nM | Cc1cc2c(cc1OC1CCC(C(=O)NCCO)CC1)CCC(c1ccccc1C)O2 (stereo not drawn) [compound 288] | –
1300 nM | Cc1cc2c(cc1OC1CCC(C(=O)NCc3ccno3)CC1)CCC(c1ccccc1C)O2 (stereo not drawn) [compound 289] | –

The next lines start with the compound.

Structure (SMILES) | IC50 | also measured
CC(C)(C)CNC1CCC(Oc2ccc3c(c2)CCC(c2ccccc2)O3)CC1 (stereo not drawn) [compound 161, N-(2,2-Dimethylpropyl)-4-(2-phenylchroman-6-yloxy)-cyclohexylamine] | 1300 nM | –
CC(C)(C)CNC1CCC(Oc2ccc3c(c2)CCC(c2ccccc2)O3)CC1 (stereo not drawn) [compound 162, N-(2,2-Dimethylpropyl)-4-(2-phenylchroman-6-yloxy)-cyclohexylamine] | 2300 nM | –
CC1(O)CCC(Oc2ccc3c(c2)CCC(c2ccccc2)O3)CC1 (stereo not drawn) [compound 163, 1-Methyl-4-(2-phenylchroman-6-yloxy)-cyclohexanol] | 600 nM | –
Cc1cccc(C)c1C1CCc2cc(OC3CCC(NCc4c(C)nn(C)c4C)CC3)ccc2O1 (stereo not drawn) [compound 164] | 9400 nM | –
CSC(C)CCNC1CCC(Oc2ccc3c(c2)CCC(c2c(C)cccc2C)O3)CC1 (stereo not drawn) [compound 165] | 10000 nM | –
Cc1cccc(C)c1C1CCc2cc(OC3CCC(C(=O)NCCO)CC3)ccc2O1 (stereo not drawn) [compound 166] | 6200 nM | –
Cc1cccc(C)c1C1CCc2cc(OC3CCC(C(=O)NCc4ccno4)CC3)ccc2O1 (stereo not drawn) [compound 167] | 7700 nM | –
Cc1nn(C)c(C)c1CNC1CCC(Oc2ccc3c(c2)CCC(c2ccccc2F)O3)CC1 (stereo not drawn) [compound 169] | 2500 nM | –
CSC(C)CCNC1CCC(Oc2ccc3c(c2)CCC(c2ccccc2F)O3)CC1 (stereo not drawn) [compound 170] | 4600 nM | –
O=C(NCCO)C1CCC(Oc2ccc3c(c2)CCC(c2ccccc2F)O3)CC1 (stereo not drawn) [compound 173] | 700 nM | –
O=C(NCc1ccno1)C1CCC(Oc2ccc3c(c2)CCC(c2ccccc2F)O3)CC1 (stereo not drawn) [compound 174] | 600 nM | –
CSC(C)CCNC1CCC(Oc2ccc3c(c2)CCC(c2ccccc2C)O3)CC1 (stereo not drawn) [compound 175] | 3500 nM | –
N[C@@H](CO)C(=O)N[C@H]1CC[C@H](Oc2ccc3c(c2)CCC(c2ccccc2)O3)CC1 (stereo partly drawn) [compound 181, hydrochloride] | 300 nM | –
CCn1nccc1CNC(=O)C1CCC(Oc2ccc3c(c2)CCC(c2ccccc2F)O3)CC1 (stereo not drawn) [compound 183] | 10000 nM | –
O=C(NCc1ccnc(Cl)c1)C1CCC(Oc2ccc3c(c2)CCC(c2ccccc2F)O3)CC1 (stereo not drawn) [compound 184] | 1300 nM | –
Cc1ccccc1C1CCc2cc(OC3CCC(NCC4CCCO4)CC3)ccc2O1 (stereo not drawn) [compound 187] | – | inhibition at 10 µM [1]: 99%
COCC(C)NC1CCC(Oc2ccc3c(c2)CCC(c2ccccc2C)O3)CC1 (stereo not drawn) [compound 188] | – | inhibition at 10 µM [1]: 96%
COCCNC1CCC(Oc2ccc3c(c2)CCC(c2ccccc2C)O3)CC1 (stereo not drawn) [compound 189] | – | inhibition at 10 µM [1]: 100%
Cc1ccccc1C1CCc2cc(OC3CCC(NCCCOC(C)C)CC3)ccc2O1 (stereo not drawn) [compound 190] | – | inhibition at 10 µM [1]: 93%
CCSCCNC1CCC(Oc2ccc3c(c2)CCC(c2ccccc2C)O3)CC1 (stereo not drawn) [compound 191] | – | inhibition at 10 µM [1]: 95%
CSCCNC1CCC(Oc2ccc3c(c2)CCC(c2ccccc2C)O3)CC1 (stereo not drawn) [compound 192] | – | inhibition at 10 µM [1]: 98%
COCCCNC1CCC(Oc2ccc3c(c2)CCC(c2ccccc2C)O3)CC1 (stereo not drawn) [compound 193] | – | inhibition at 10 µM [1]: 99%
Cc1ccccc1C1CCc2cc(OC3CCC(NCCSC(C)C)CC3)ccc2O1 (stereo not drawn) [compound 194] | – | inhibition at 10 µM [2]: 85%
CCC(COC)NC1CCC(Oc2ccc3c(c2)CCC(c2ccccc2C)O3)CC1 (stereo not drawn) [compound 195] | – | inhibition at 10 µM [2]: 96%

Structure (SMILES) | IC50 | also measured
Cc1ccccc1C1CCc2cc(OC3CCC(NCCC4CCOCC4)CC3)ccc2O1 (stereo not drawn) [compound 196] | – | inhibition at 10 µM [2]: 97%
Cc1ccccc1C1CCc2cc(OC3CCC(NC4CCOCC4)CC3)ccc2O1 (stereo not drawn) [compound 197] | – | inhibition at 10 µM [2]: 96%
Cc1ccccc1C1CCc2cc(OC3CCC(NCCCC4CCOC4)CC3)ccc2O1 (stereo not drawn) [compound 198] | – | inhibition at 10 µM [2]: 97%
Cc1ccccc1C1CCc2cc(OC3CCC(NCCCOC4CCCC4)CC3)ccc2O1 (stereo not drawn) [compound 199] | – | inhibition at 10 µM [2]: 71%
COCC(C)(C)CNC1CCC(Oc2ccc3c(c2)CCC(c2ccccc2C)O3)CC1 (stereo not drawn) [compound 200] | – | inhibition at 10 µM [2]: 94%
CCOCCCNC1CCC(Oc2ccc3c(c2)CCC(c2ccccc2C)O3)CC1 (stereo not drawn) [compound 201] | – | inhibition at 10 µM [2]: 98%
Cc1ccccc1C1CCc2cc(OC3CCC(NCCN4CCOCC4)CC3)ccc2O1 (stereo not drawn) [compound 202] | 1900 nM | –
Cc1ccccc1C1CCc2cc(OC3CCC(NC4CC4)CC3)ccc2O1 (stereo not drawn) [compound 203] | 1500 nM | –
Cc1ccccc1C1CCc2cc(OC3CCC(NC4CCCC4)CC3)ccc2O1 (stereo not drawn) [compound 204] | 1900 nM | –
CCCNC1CCC(Oc2ccc3c(c2)CCC(c2ccccc2C)O3)CC1 (stereo not drawn) [compound 205] | 1500 nM | –
Cc1ccccc1C1CCc2cc(OC3CCC(NC4CCS(=O)(=O)C4)CC3)ccc2O1 (stereo not drawn) [compound 206] | 1100 nM | –
COC[C@H](C)NC1CCC(Oc2ccc3c(c2)CCC(c2ccccc2C)O3)CC1 (stereo partly drawn) [compound 207] | 1500 nM | –
Cc1ccccc1C1CCc2cc(OC3CCC(NCC4CCOCC4)CC3)ccc2O1 (stereo not drawn) [compound 208] | 3000 nM | –
Cc1ccccc1C1CCc2cc(OC3CCC(NCCN4CCSCC4)CC3)ccc2O1 (stereo not drawn) [compound 209] | 3200 nM | –
O=S1(=O)CCC(NC2CCC(Oc3ccc4c(c3)CCC(c3ccccc3F)O4)CC2)C1 (stereo not drawn) [compound 210] | 1100 nM | –
COCC(C)(C)CNC1CCC(Oc2ccc3c(c2)CCC(c2ccccc2F)O3)CC1 (stereo not drawn) [compound 211] | 2200 nM | –
Fc1ccccc1C1CCc2cc(OC3CCC(NC4CC4)CC3)ccc2O1 (stereo not drawn) [compound 212] | 1700 nM | –
CCCNC1CCC(Oc2ccc3c(c2)CCC(c2ccccc2F)O3)CC1 (stereo not drawn) [compound 213] | 1400 nM | –
COCCNC1CCC(Oc2ccc3c(c2)CCC(c2ccccc2F)O3)CC1 (stereo not drawn) [compound 214] | 1600 nM | –
COCCCNC1CCC(Oc2ccc3c(c2)CCC(c2ccccc2F)O3)CC1 (stereo not drawn) [compound 215] | 2800 nM | –
Fc1ccccc1C1CCc2cc(OC3CCC(NCC4CCCO4)CC3)ccc2O1 (stereo not drawn) [compound 216] | 1700 nM | –
CCSCCNC1CCC(Oc2ccc3c(c2)CCC(c2ccccc2F)O3)CC1 (stereo not drawn) [compound 217] | 2300 nM | –
Fc1ccccc1C1CCc2cc(OC3CCC(NC4CCCC4)CC3)ccc2O1 (stereo not drawn) [compound 218] | 2800 nM | –
